We go through 8 molecules from ChEMBL document CHEMBL2311283, “Structural modifications to tetrahydropyridine-3-carboxylate esters en route to the discovery of M5-preferring muscarinic receptor orthosteric antagonists” (J Med Chem, 2013).

Where only a bound is given, the exact number is not on record here.

For assay [1], the target named is T1, Muscarinic acetylcholine receptor M1 (Homo sapiens, UniProt P11229).
T1 sequence (P11229 whole entry): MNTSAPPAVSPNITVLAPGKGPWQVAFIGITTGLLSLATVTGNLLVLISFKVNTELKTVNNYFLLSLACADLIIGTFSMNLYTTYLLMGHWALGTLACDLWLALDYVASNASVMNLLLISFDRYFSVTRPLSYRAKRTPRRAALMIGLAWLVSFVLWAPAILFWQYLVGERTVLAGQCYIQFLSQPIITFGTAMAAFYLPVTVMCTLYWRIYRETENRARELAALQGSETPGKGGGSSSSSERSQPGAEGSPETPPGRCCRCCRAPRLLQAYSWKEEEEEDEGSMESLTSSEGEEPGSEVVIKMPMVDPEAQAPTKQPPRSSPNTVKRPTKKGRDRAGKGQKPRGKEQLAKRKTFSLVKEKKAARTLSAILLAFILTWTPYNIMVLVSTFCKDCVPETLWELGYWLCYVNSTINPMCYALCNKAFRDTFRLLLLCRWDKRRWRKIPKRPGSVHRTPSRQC
Put plainly: biochemical. It counts as cell-based, CHO-K1.

The species entered for assay [2] is Homo sapiens. Put plainly: Selectivity index, ratio of Ki for human M4 muscarinic receptor to Ki for human M5 muscarinic receptor.
For assay [3], the species on record is Homo sapiens. Put plainly: Selectivity index, ratio of Ki for human M3 muscarinic receptor to Ki for human M5 muscarinic receptor.
Assay [4] deals with T2, Muscarinic acetylcholine receptor M5 (Homo sapiens, UniProt P08912).
T2 sequence (P08912 whole entry): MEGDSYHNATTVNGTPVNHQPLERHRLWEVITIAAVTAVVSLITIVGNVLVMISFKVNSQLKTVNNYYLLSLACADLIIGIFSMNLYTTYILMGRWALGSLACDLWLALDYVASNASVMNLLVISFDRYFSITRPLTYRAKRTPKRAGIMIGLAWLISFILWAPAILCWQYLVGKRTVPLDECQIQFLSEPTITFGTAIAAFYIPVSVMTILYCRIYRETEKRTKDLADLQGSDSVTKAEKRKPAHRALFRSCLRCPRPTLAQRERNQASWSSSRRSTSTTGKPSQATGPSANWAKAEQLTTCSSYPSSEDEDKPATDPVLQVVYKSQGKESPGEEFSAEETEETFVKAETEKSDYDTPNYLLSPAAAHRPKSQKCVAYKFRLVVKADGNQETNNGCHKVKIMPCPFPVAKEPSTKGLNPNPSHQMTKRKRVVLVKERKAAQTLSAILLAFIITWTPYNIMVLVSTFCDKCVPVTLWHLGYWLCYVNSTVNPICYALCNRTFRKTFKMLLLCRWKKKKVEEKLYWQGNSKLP
Put plainly: Displacement of [3H]NMS from human M5 muscarinic receptor expressed in CHO-K1 cells. Format: cell-based. For orientation: Displacement assays read how much labelled ligand stays bound in the presence of the test substance.

For assay [5], the species on record is Homo sapiens. Put plainly: Selectivity index, ratio of Ki for human M1 muscarinic receptor to Ki for human M5 muscarinic receptor.
For assay [6], the target named is T3, Muscarinic acetylcholine receptor M4 (Homo sapiens, UniProt P08173).
T3 sequence (P08173 whole entry): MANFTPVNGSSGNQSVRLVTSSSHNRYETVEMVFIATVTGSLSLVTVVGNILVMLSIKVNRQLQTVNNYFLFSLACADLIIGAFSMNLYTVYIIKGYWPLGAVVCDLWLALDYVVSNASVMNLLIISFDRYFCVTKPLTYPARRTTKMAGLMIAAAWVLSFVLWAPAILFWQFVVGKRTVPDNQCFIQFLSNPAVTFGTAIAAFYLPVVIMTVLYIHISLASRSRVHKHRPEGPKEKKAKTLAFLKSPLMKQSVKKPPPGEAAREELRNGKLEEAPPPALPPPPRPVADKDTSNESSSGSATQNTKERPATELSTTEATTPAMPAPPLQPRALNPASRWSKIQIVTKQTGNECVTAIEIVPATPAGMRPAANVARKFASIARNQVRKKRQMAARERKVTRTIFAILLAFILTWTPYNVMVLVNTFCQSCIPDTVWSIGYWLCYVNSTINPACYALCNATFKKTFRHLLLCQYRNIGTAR
Put plainly: Displacement of [3H]NMS from human M4 muscarinic receptor expressed in CHO-K1 cells. Format: cell-based.

Assay [7] deals with T4, Muscarinic acetylcholine receptor M3 (Homo sapiens, UniProt P20309). Put plainly: Displacement of [3H]NMS from human M3 muscarinic receptor expressed in CHO-K1 cells. It counts as cell-based.
T4 sequence (P20309 whole entry): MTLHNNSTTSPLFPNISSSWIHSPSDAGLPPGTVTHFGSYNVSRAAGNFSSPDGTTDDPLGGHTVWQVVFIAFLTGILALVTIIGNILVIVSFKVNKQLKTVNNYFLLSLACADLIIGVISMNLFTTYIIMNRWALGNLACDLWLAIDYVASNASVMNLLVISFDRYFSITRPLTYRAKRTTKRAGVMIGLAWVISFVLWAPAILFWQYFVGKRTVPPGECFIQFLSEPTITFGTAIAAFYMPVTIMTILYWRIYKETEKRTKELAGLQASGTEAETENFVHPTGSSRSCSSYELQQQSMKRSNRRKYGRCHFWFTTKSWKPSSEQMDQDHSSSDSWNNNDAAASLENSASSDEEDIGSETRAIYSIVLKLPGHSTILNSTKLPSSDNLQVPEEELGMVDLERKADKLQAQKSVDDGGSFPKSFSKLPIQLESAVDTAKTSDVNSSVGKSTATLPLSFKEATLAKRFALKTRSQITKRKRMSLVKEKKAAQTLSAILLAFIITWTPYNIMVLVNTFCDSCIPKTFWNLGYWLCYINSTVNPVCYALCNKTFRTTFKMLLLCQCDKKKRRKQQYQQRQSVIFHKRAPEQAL
Assay [8] addresses T5, Muscarinic acetylcholine receptor M2 (Homo sapiens, UniProt P08172).
T5 sequence (P08172 whole entry): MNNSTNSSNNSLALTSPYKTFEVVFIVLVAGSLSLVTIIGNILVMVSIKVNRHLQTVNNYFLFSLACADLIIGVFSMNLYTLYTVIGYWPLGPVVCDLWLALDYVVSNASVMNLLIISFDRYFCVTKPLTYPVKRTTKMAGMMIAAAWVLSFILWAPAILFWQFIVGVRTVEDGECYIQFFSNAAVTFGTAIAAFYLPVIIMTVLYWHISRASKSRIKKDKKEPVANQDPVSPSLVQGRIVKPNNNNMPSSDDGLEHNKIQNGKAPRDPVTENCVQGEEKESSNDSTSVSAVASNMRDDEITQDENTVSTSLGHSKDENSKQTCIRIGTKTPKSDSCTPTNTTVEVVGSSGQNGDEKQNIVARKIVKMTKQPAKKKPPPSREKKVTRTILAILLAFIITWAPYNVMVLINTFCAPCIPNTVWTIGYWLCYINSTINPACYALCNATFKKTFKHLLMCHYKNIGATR
Put plainly: Displacement of [3H]NMS from human M2 muscarinic receptor expressed in CHO-K1 cells. Format: cell-based.

The target of assay [9] is T6, Muscarinic acetylcholine receptor M5 (Rattus norvegicus) (UniProt P08911).
T6 sequence (whole entry): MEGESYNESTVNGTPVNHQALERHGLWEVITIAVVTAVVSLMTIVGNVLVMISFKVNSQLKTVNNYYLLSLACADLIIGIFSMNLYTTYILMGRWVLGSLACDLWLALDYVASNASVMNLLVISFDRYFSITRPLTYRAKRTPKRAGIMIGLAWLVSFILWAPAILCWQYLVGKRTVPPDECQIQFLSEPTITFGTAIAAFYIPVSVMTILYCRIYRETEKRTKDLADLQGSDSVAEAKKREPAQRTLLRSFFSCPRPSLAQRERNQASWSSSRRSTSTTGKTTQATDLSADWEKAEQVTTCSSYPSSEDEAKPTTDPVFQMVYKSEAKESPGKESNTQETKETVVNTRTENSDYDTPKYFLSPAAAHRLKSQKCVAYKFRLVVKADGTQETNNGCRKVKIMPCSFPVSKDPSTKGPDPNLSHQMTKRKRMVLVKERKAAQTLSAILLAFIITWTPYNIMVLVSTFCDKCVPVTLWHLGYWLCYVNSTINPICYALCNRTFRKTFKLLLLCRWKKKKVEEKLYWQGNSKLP
Put plainly: Orthosteric antagonist activity at M5 muscarinic receptor in rat striatal slices assessed as inhibition of 10 uM oxotremorine-evoked [3H]DA release.

Assay [10] has as its target T6, Muscarinic acetylcholine receptor M5 (Rattus norvegicus). The note with it: at 1 µM.
For assay [11], the target named is T5, Muscarinic acetylcholine receptor M2.
The target in assay [12] is T3, Muscarinic acetylcholine receptor M4. Put plainly: Binding affinity to human M4 muscarinic receptor.
Assay [13] has as its target T4, Muscarinic acetylcholine receptor M3. Put plainly: Binding affinity to human M3 muscarinic receptor.

For `CCN1CCC(c2ccccc2)=C(C(=O)OCCc2ccc3c(c2)CCO3)C1`, the Ki in assay [1] was 1.39 µM; in assay [4] it was 0.23 µM; in assay [6], 10.5 µM; in [7], 31.1 µM; in assay [8] it was over 100 µM. The Ratio Ki in the assay listed under Homo sapiens [2] was 46; in the assay filed under Homo sapiens [3], 135; in the assay filed under Homo sapiens [5] it was 6.

For `CN1CCC(c2ccccc2)=C(C(=O)OCCc2cccc3ccccc23)C1`, the Ki in assay [1] is 24.4 µM; in [4], 5.04 µM; in assay [6], over 100 µM; in [7] it was over 100 µM; in assay [8] it was over 100 µM. Besides, the Ratio Ki in the assay filed under Homo sapiens [2] was over 20; in the assay filed under Homo sapiens [3], over 20; in the assay listed under Homo sapiens [5], 4.8.

Regarding `CN1[C@@H]2C[C@@H](OC(=O)[C@H](CO)c3ccccc3)C[C@H]1[C@@H]1O[C@@H]12`, in [9], the inhibition entry is “Dose-dependent effect”. Also, in assay [10], the Imax was 100%.

`COc1ccc(CCOC(=O)C2=C(c3cccc(F)c3)CCN(C)C2)cc1OC`: the Ki in assay [1] is 27 µM; in assay [4], 3.34 µM; in assay [6], over 100 µM; in assay [7] it was over 100 µM; in assay [8], over 100 µM. In addition, the Ratio Ki was over 30 in the assay listed under Homo sapiens [2], over 30 in the assay listed under Homo sapiens [3] and 8.1 in the assay listed under Homo sapiens [5].

As to `CCN1CCC(c2ccccc2)=C(C(=O)OCCCc2ccc(OC)cc2)C1`, the Ki in assay [6] is 11.5 µM; in assay [7], 4.07 µM; in [8] it was 2.03 µM.

As to `CCN(CC)CC1CCCCN1CC(=O)N1c2ccccc2C(=O)Nc2cccnc21` (stereo not drawn) [OTENZEPAD], the results for the Ki in [11], in [12] and in assay [13] were 0.081 µM, 0.407 µM and 2.09 µM, respectively.

As for `CN1CCC(c2ccccc2F)=C(C(=O)OCCc2ccc3c(c2)CCO3)C1`, the Ki stood at 5.27 µM in assay [1]; 0.74 µM in assay [4]; 5.74 µM in assay [6]; 4.89 µM in assay [7]; 0.54 µM in assay [8]. In addition, the Ratio Ki in the assay filed under Homo sapiens [2] worked out at 7.8; in the assay listed under Homo sapiens [3], 6.6; in the assay filed under Homo sapiens [5], 7.

With `CN1CCC(c2ccccc2)=C(C(=O)OCCc2ccc3c(c2)CCO3)C1`, the inhibitory constant (Ki) in assay [1] is 0.29 µM; in assay [4] it was 0.06 µM; in assay [6], 1.89 µM; in [7], 2.84 µM; in assay [8], 1.17 µM. In addition, the Ratio Ki in the assay filed under Homo sapiens [2] is 32; in the assay filed under Homo sapiens [3] it was 47; in the assay listed under Homo sapiens [5] it was 4.8.

Broadly, the Ki is a dissociation constant, usually derived from enzyme kinetics or from competition with a known ligand.
